Test results taken from patent publication US20230165846A1, “HETEROCYCLIC GLP-1 AGONISTS” (Gasherbrum Bio, Inc., priority 2020, published 2023).

What was measured:
GLP-1 Receptor [1] = target: T1, GLP-1 Receptor (Homo sapiens, UniProt P43220); test: GLP-1R agonist cAMP stimulation assay, Method 1 (DiscoverX CHO-K1, enzyme fragment complementation); format: cell-based; conditions: CHO-K1 cell line (DiscoverX) stably expressing GLP-1 Receptor; incubation 30 or 60 min at 37° C.; geometric mean where n>=2; read-out: GLP1R cAMP Stimulation DR: EC50 (nM) Method 1
T1 sequence (P43220 24-463): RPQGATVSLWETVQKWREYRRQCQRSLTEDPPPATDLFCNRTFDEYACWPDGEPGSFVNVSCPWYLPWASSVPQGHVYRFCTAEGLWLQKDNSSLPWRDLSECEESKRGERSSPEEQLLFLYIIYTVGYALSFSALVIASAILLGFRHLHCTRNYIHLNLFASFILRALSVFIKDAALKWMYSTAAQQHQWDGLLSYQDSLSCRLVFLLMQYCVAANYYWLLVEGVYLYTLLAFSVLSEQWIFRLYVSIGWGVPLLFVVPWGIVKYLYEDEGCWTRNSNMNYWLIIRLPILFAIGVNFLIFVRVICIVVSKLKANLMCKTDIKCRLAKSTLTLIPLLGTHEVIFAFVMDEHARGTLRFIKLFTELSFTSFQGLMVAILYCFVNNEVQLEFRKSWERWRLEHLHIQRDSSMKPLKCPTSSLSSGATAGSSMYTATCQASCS
Procedure: Activation of GLP-1 receptor is known to stimulate cyclic AMP (cAMP) production in cells which indicates primary coupling to the Gas subunit of the G protein heterotrimeric complex.
Method 1: To optimize functional activity directed toward Gas coupling, a CHO—K1 cell line developed by DiscoverX stably expressing the GLP-1 Receptor was used. Cells expressing GLP-1 receptor were plated in a 384-well microtiter plates and incubated overnight at 37° C. with 5% CO2 to allow the cells to attach and grow. Media was then aspirated from the cells and replaced with 15 uL 2:1 Hanks Balanced Salt Solution (HBSS)/10mM Hepes : cAMP XS+ Ab reagent. Five microliters (5 uL) of previously generated compound sample stocks at 4x final concentration in assay buffer were then added to the cells and allowed to incubate at 37° C. for 30 or 60 minutes.
After incubation the assay signal was generated using enzyme fragment complementation (EFC). In EFC, the enzyme B-galactosidase is split into two complementary portions (EA and ED). The fragment ED is fused to cAMP and in the assay format competes with endogenous cAMP for binding to a cAMP specific antibody. Activated β—Gal is formed when exogenous EA fragment binds to free ED-cAMP (not bound to cAMP specific antibody). Activated enzyme levels are detected through conversion of β-gal chemiluminescent substrate which generates a detectable luminescence signal and read on standard microtiter plate.
The methodology for detection of cAMP using EFC requires incubation with 20uL of cAMP XS+ ED/CL lysis cocktail for one hour followed by incubation with 20 uL cAMP XS+ EA reagent for three hours at room temperature. Microplates were read following signal generation with a PerkinElmer Envision instrument utilizing chemiluminescent signal detection. Compound activity was analyzed using CBIS data analysis suite (ChemInnovation, CA). Percentage activity was calculated using the following formula:
(§1) %Activity = 100% x (mean RLU of test sample - mean RLU of vehicle control) / (mean RLU of MAX control - mean RLU of vehicle control))
(§2) This is done to account for the lognormal distribution of multiple estimates of EC50 values. In practice geometric mean is calculated by first generating log values of EC50, averaging replicates and then calculating the antilog of the average.

GLP-1 Receptor [2] = target: T1, GLP-1 Receptor; test: GLP-1R agonist cAMP stimulation assay, Method 2 (HDB HEK293/GLP1R/CRE-LUC, Cisbio cAMP dynamic 2 kit); format: cell-based; conditions: HEK293/GLP1R/CRE-LUC cells (HD Biosciences); 30 min at 37° C.; 0.5 mM IBMX, 0.1% BSA; geometric mean where n>=2; read-out: GLP1R cAMP Stimulation DR: EC50 (nM) Method 2 (HDB)
Procedure: Method 2: Activation of GLP-1 receptor is known to stimulate cyclic AMP (cAMP) production in cells which indicates primary coupling to the Gas subunit of the G protein heterotrimeric complex.
To optimize functional activity directed toward Gas coupling, a HEK293/CRE-Luc cell line developed by HDB stably expressing the GLP-1 Receptor was used. 200× concentration of compound working solutions were prepared (Agilent Technologies Bravo) with ½log serial dilution in 384-well Echo LDV plate (Labcyte, Cat# LP-0200). […] Seal the plate and incubate at 37° C. with 5% CO2 for 30 min.
After incubation the cAMP assay signal was generated using cAMP dynamic 2 Kit (Cisbio). 5 µL cAMP-d2 working solution was added to each well, followed with 5 µL Anti-cAMP antibody-cryptate working solution added to each well using ThermoFisher Multidrop Combi. Incubate at room temperature for 1 hour protected from light.
as §1, §2

Row | Compound | EC50 (GLP-1 Receptor [1]) [nM] | EC50 (GLP-1 Receptor [2]) [nM]
1 | O=C(O)c1ccc2nc(Cc3ccc(-c4cccc(OCc5ccc(Cl)cc5F)n4)cc3)n(C[C@@H]3CCO3)c2n1 [Compound 120aw, 2-[[4-[6-[(4-chloro-2-fluoro-phenyl)methoxy]-2-pyridyl]phenyl]methyl]-3-[[(2S)-oxetan-2-yl]methyl]imidazo[4,5-b]pyridine-5-carboxylic acid] | < 0.051 | 0.017
2 | O=C(O)c1ccc2nc(CC3CC=C(c4ccnc(OCc5ccc(Cl)cc5F)n4)CC3)n(C[C@@H]3CCO3)c2n1 (stereo partly drawn) [Compound 104a, 2-((4-(2-((4-chloro-2-fluorobenzyl)oxy)pyrimidin-4-yl)cyclohex-3-en-1-yl)methyl)-3-(((S)-oxetan-2-yl)methyl)-3H-imidazo[4,5-b]pyridine-5-carboxylic acid] | 0.114 | 0.12
3 | Cc1c(-c2cccc(OCc3ccc(Cl)cc3F)n2)ccn(Cc2nc3ccc(C(=O)O)nc3n2C[C@@H]2CCO2)c1=O [Compound 105aw, (S)-2-((6-((4-chloro-2-fluorobenzyl)oxy)-3′-methyl-2′-oxo-[2,4′-bipyridin]-1′(2′H)-yl)methyl)-3-(oxetan-2-ylmethyl)-3H-imidazo[4,5-b]pyridine-5-carboxylic acid] | 11 | 7.1
4 | N#Cc1ccc(COc2nc(C3=CCN(Cc4nc5ccc(C(=O)O)nc5n4C[C@@H]4CCO4)CC3)cs2)c(F)c1 [Compound 112a, (S)-2-((4-(2-((4-cyano-2-fluorobenzyl)oxy)thiazol-4-yl)-3,6-dihydropyridin-1 (2H)-yl)methyl)-3-(oxetan-2-ylmethyl)-3H-imidazo[4,5-b]pyridine-5-carboxylic acid] | 0.26 | 0.17
5 | O=C(O)c1ccc2nc(Cn3ccc(-c4cccc(OCc5ccc(Cl)cc5F)n4)cc3=O)n(C[C@@H]3CCO3)c2c1 [Compound 107aw, 2-[[4-[6-[(4-chloro-2-fluorophenyl)methoxy]-2-pyridyl]-2-oxo-1-pyridyl]methyl]-3-[[(2S)-oxetan-2-yl]methyl]benzimidazole-5-carboxylic acid] | 0.28 | 0.19
6 | O=C(O)c1ccc2nc(CN3CC=C(c4csc(OCc5ccc(Cl)cc5F)n4)CC3)n(C[C@@H]3CCO3)c2n1 [Compound 111a] | 0.18 | 0.073
7 | O=C(O)c1ccc2nc(Cn3ccc(-c4cccc(OCc5ccc(Cl)cc5F)c4)cc3=O)n(C[C@@H]3CCO3)c2n1 [Compound 108aw, 2-[[4-[3-[(4-chloro-2-fluoro-phenyl)methoxy]phenyl]-2-oxo-1-pyridyl]methyl]-3-[[(2S)-oxetan-2-yl]methyl]-imidazo[4,5-b]pyridine-5-carboxylic acid] | 5.9 | 5.7
8 | O=C(O)c1ccc2nc(CC3CC=C(c4cccc(OCc5ccc(Cl)cc5F)n4)CC3)n(C[C@@H]3CCO3)c2n1 (stereo partly drawn) [Compound 102a, 2-((4-(6-((4-chloro-2-fluorobenzyl)oxy)pyridin-2-yl)cyclohex-3-en-1-yl)methyl)-3-(((S)-oxetan-2-yl)methyl)-3H-imidazo[4,5-b]pyridine-5-carboxylic acid] | 0.016 | 0.0096
9 | O=C(O)c1ccc2nc(COc3cc(-c4cccc(OCc5ccc(Cl)cc5F)n4)c(F)cn3)n(C[C@@H]3CCO3)c2n1 [Compound 109aw, (S)-2-(((6-((4-chloro-2-fluorobenzyl)oxy)-5′-fluoro-[2,4′-bipyridin]-2′-yl)oxy)methyl)-3-(oxetan-2-ylmethyl)-3H-imidazo[4,5-b]pyridine-5-carboxylic acid] | 4.8 | 10
10 | N#Cc1ccc(COc2nccc(C3=CCC(Cc4nc5ccc(C(=O)O)nc5n4C[C@@H]4CCO4)CC3)n2)c(F)c1 (stereo partly drawn) [Compound 105a, 2-((4-(2-((4-cyano-2-fluorobenzyl)oxy)pyrimidin-4-yl)cyclohex-3-en-1-yl)methyl)-3-(((S)-oxetan-2-yl)methyl)-3H-imidazo[4,5-b]pyridine-5-carboxylic acid] | 0.12 | 0.089
11 | N#Cc1ccc(COc2cccc(C3=CCC(Cc4nc5ccc(C(=O)O)nc5n4C[C@@H]4CCO4)CC3)n2)c(F)c1 (stereo partly drawn) [Compound 101a, 2-((4-(6-((4-cyano-2-fluorobenzyl)oxy)pyridin-2-yl)cyclohex-3-en-1-yl)methyl)-3-(((S)-oxetan-2-yl)methyl)-3H-imidazo[4,5-b]pyridine-5-carboxylic acid] | < 0.051 | 0.019
12 | O=C(O)c1ccc2nc(CN3CC=C(c4cccc(OCc5ccc(Cl)cc5F)n4)CC3)n(C[C@@H]3CCO3)c2n1 [Compound 110a, (S)-2-((6-((4-chloro-2-fluorobenzyl)oxy)-3′,6′-dihydro-[2,4′-bipyridin]-1′(2′H)-yl)methyl)-3-(oxetan-2-ylmethyl)-3H-imidazo[4,5-b]pyridine-5-carboxylic acid] | < 0.051 | 0.0074
13 | O=C(O)c1ccc2nc(Cc3ccc(-c4nccc(OCc5ccccc5)n4)cc3)n(C[C@@H]3CCO3)c2n1 [Compound 102aw, 2-[[4-(4-benzyloxypyrimidin-2-yl)phenyl]methyl]-3-[[(2S)-oxetan-2-yl]methyl]imidazo[4,5-b]pyridine-5-carboxylic acid] | 2.2 | 1.9
14 | O=C(O)c1ccc2nc(COc3cc(-c4cccc(OCc5ccc(Cl)cc5F)c4)ccn3)n(C[C@@H]3CCO3)c2n1 [Compound 110aw, 2-[[4-[3-[(4-chloro-2-fluoro-phenyl)methoxy]phenyl]-2-pyridyl]oxymethyl]-3-[[(2S)-oxetan-2-yl]methyl]imidazo[4,5-b]pyridine-5-carboxylic acid] | 43 | 88
15 | Cc1cn(Cc2nc3ccc(C(=O)O)nc3n2C[C@@H]2CCO2)c(=O)cc1-c1cccc(OCc2ccc(Cl)cc2F)n1 [Compound 104aw, (S)-2-((6-((4-chloro-2-fluorobenzyl)oxy)-5′-methyl-2′-oxo-[2,4′-bipyridin]-1′(2′H)-yl)methyl)-3-(oxetan-2-ylmethyl)-3H-imidazo[4,5-b]pyridine-5-carboxylic acid] | 0.17 | 0.13
16 | O=C(O)c1ccc2nc(CC3CC=C(c4nccc(OCc5ccc(Cl)cc5F)n4)CC3)n(C[C@@H]3CCO3)c2n1 (stereo partly drawn) [Compound 103a, 2-((4-(4-((4-chloro-2-fluorobenzyl)oxy)pyrimidin-2-yl)cyclohex-3-en-1-yl)methyl)-3-(((S)-oxetan-2-yl)methyl)-3H-imidazo[4,5-b]pyridine-5-carboxylic acid] | 0.073 | 0.095
17 | N#Cc1ccc(COc2cccc(-c3ccn(Cc4nc5ccc(C(=O)O)nc5n4C[C@@H]4CCO4)c(=O)c3)n2)c(F)c1 [Compound 106aw, (S)-2-((6-((4-cyano-2-fluorobenzyl)oxy)-2′-oxo-[2,4′-bipyridin] -1′(2′H)-yl)methyl)-3-(oxetan-2-ylmethyl)-3H-imidazo[4,5-b]pyridine-5-carboxylic acid] | 1.3 | 4.1
18 | O=C(O)c1ccc2nc(Cc3ccc(-c4nccc(OCc5ccc(Cl)cc5F)n4)cc3)n(C[C@@H]3CCO3)c2n1 [Compound 101aw, (S)-2-(4-(4-((4-chloro-2-fluorobenzyl)oxy)pyrimidin-2-yl)benzyl)-3-(oxetan-2-ylmethyl)-3H-imidazo[4,5-b]pyridine-5-carboxylic acid] | 0.069 | 0.097
